From PubChem BioAssay (NCI)
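All cell lines were grown in 96-well plates and treated with compound for 48 hours. The concentration for full growth arrest is given as TGI.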

Columns and labels:
Assay in all cases: NCI anticancer screen, dose series, 48 h
UO-31 renal = tested on: UO-31 renal
SK-OV-3 ovarian = tested on: SK-OV-3 ovarian
ACHN renal = tested on: ACHN renal
OVCAR-3 ovarian = tested on: OVCAR-3 ovarian
OVCAR-8 ovarian = tested on: OVCAR-8 ovarian
KM12 colon = tested on: KM12 colon
RPMI-8226 leukemia = tested on: RPMI-8226 leukemia
MALME-3M melanoma = tested on: MALME-3M melanoma
SF-295 CNS = tested on: SF-295 CNS
LOX IMVI melanoma = tested on: LOX IMVI melanoma
CAKI-1 renal = tested on: CAKI-1 renal
IGROV1 ovarian = tested on: IGROV1 ovarian
SK-MEL-5 melanoma = tested on: SK-MEL-5 melanoma
DMS 114 small cell lung = tested on: DMS 114 small cell lung
SN12C renal = tested on: SN12C renal
A498 renal = tested on: A498 renal
MOLT-4 leukemia = tested on: MOLT-4 leukemia
SF-268 CNS = tested on: SF-268 CNS
SW-620 colon = tested on: SW-620 colon
RXF-631 renal = tested on: RXF-631 renal
HOP-92 NSCLC = tested on: HOP-92 NSCLC
K-562 leukemia = tested on: K-562 leukemia
OVCAR-5 ovarian = tested on: OVCAR-5 ovarian
HT29 colon = tested on: HT29 colon
SNB-19 CNS = tested on: SNB-19 CNS
XF 498 CNS = tested on: XF 498 CNS
SK-MEL-2 melanoma = tested on: SK-MEL-2 melanoma
NCI-H522 lung = tested on: NCI-H522 lung
NCI-H460 lung = tested on: NCI-H460 lung
786-0 renal = tested on: 786-0 renal
HOP-62 NSCLC = tested on: HOP-62 NSCLC
HCT-15 colon = tested on: HCT-15 colon
KM20L2 colon = tested on: KM20L2 colon
SNB-75 CNS = tested on: SNB-75 CNS
CCRF-CEM leukemia = tested on: CCRF-CEM leukemia
M14 melanoma = tested on: M14 melanoma
A549 NSCLC = tested on: A549 NSCLC
LXFL 529 NSCLC = tested on: LXFL 529 NSCLC
UACC-257 melanoma = tested on: UACC-257 melanoma
HCT-116 colon = tested on: HCT-116 colon
HCC-2998 colon = tested on: HCC-2998 colon
OVCAR-4 ovarian = tested on: OVCAR-4 ovarian
DLD-1 colon = tested on: DLD-1 colon
UACC-62 melanoma = tested on: UACC-62 melanoma
NCI-H226 lung = tested on: NCI-H226 lung
HL-60(TB) leukemia = tested on: HL-60(TB) leukemia
SNB-78 CNS = tested on: SNB-78 CNS
COLO 205 colon = tested on: COLO 205 colon
DMS 273 small cell lung = tested on: DMS 273 small cell lung
TK-10 renal = tested on: TK-10 renal
SF-539 CNS = tested on: SF-539 CNS
SK-MEL-28 melanoma = tested on: SK-MEL-28 melanoma
NCI-H23 lung = tested on: NCI-H23 lung
U251 CNS = tested on: U251 CNS
EKVX NSCLC = tested on: EKVX NSCLC
M19-MEL melanoma = tested on: M19-MEL melanoma

`CN1C[C@@H]2CC(=O)CC[C@@H]2C[C@H]1C#N` gave a TGI (UO-31 renal) greater than 100 µM, a TGI (SK-OV-3 ovarian) greater than 100 µM and a TGI (ACHN renal) greater than 100 µM. The TGI (OVCAR-3 ovarian) was greater than 100 µM, the TGI (OVCAR-8 ovarian) was greater than 100 µM and the TGI (KM12 colon) was greater than 100 µM. The TGI (RPMI-8226 leukemia) was greater than 100 µM, the TGI (MALME-3M melanoma) was greater than 100 µM and the TGI (SF-295 CNS) was greater than 100 µM. It also gave a TGI (LOX IMVI melanoma) greater than 100 µM, a TGI (CAKI-1 renal) greater than 100 µM and a TGI (IGROV1 ovarian) greater than 100 µM. For the same compound, the TGI (SK-MEL-5 melanoma) was greater than 100 µM, the TGI (DMS 114 small cell lung) was greater than 100 µM and the TGI (SN12C renal) was greater than 100 µM. It also gave a TGI (A498 renal) greater than 100 µM, a TGI (MOLT-4 leukemia) greater than 100 µM and a TGI (SF-268 CNS) greater than 100 µM. The TGI (SW-620 colon) was greater than 100 µM, the TGI (RXF-631 renal) was greater than 100 µM and the TGI (HOP-92 NSCLC) was greater than 100 µM. It also gave a TGI (K-562 leukemia) greater than 100 µM, a TGI (OVCAR-5 ovarian) greater than 100 µM and a TGI (HT29 colon) greater than 100 µM. The TGI (SNB-19 CNS) was greater than 100 µM, the TGI (XF 498 CNS) was greater than 100 µM and the TGI (SK-MEL-2 melanoma) was greater than 100 µM. It also gave a TGI (NCI-H522 lung) greater than 100 µM, a TGI (NCI-H460 lung) greater than 100 µM and a TGI (786-0 renal) greater than 100 µM. For the same compound, the TGI (HOP-62 NSCLC) was greater than 100 µM, the TGI (HCT-15 colon) was greater than 100 µM and the TGI (KM20L2 colon) was greater than 100 µM. It also gave a TGI (SNB-75 CNS) greater than 100 µM, a TGI (CCRF-CEM leukemia) greater than 100 µM and a TGI (M14 melanoma) greater than 100 µM. The TGI (A549 NSCLC) was greater than 100 µM, the TGI (LXFL 529 NSCLC) was greater than 100 µM and the TGI (UACC-257 melanoma) was greater than 100 µM. The TGI (HCT-116 colon) was greater than 100 µM, the TGI (HCC-2998 colon) was greater than 100 µM and the TGI (OVCAR-4 ovarian) was greater than 100 µM. For the same compound, the TGI (DLD-1 colon) was greater than 100 µM, the TGI (UACC-62 melanoma) was greater than 100 µM and the TGI (NCI-H226 lung) was greater than 100 µM. It also gave a TGI (HL-60(TB) leukemia) greater than 100 µM.

Work on `Cc1ccc(NC(=O)CC2SC(=Nc3cccc(Cl)c3C)NC2=O)cc1` (configuration not stated) yielded a TGI (SNB-78 CNS) greater than 100 µM, a TGI (UO-31 renal) of 73.8 µM and a TGI (SK-OV-3 ovarian) greater than 100 µM. For the same compound, the TGI (ACHN renal) was greater than 100 µM, the TGI (COLO 205 colon) was greater than 100 µM and the TGI (OVCAR-3 ovarian) was greater than 100 µM. For the same compound, the TGI (OVCAR-8 ovarian) was greater than 100 µM, the TGI (KM12 colon) was greater than 100 µM and the TGI (DMS 273 small cell lung) was greater than 100 µM. It also gave a TGI (RPMI-8226 leukemia) greater than 100 µM, a TGI (MALME-3M melanoma) greater than 100 µM and a TGI (SF-295 CNS) greater than 100 µM. For the same compound, the TGI (LOX IMVI melanoma) was greater than 100 µM, the TGI (CAKI-1 renal) was greater than 100 µM and the TGI (IGROV1 ovarian) was greater than 100 µM. The TGI (SK-MEL-5 melanoma) was 96.5 µM, the TGI (DMS 114 small cell lung) was 96.6 µM and the TGI (SN12C renal) was greater than 100 µM. It also gave a TGI (A498 renal) greater than 100 µM, a TGI (MOLT-4 leukemia) greater than 100 µM and a TGI (SF-268 CNS) greater than 100 µM. For the same compound, the TGI (TK-10 renal) was greater than 100 µM, the TGI (SW-620 colon) was greater than 100 µM and the TGI (RXF-631 renal) was greater than 100 µM. The TGI (K-562 leukemia) was greater than 100 µM, the TGI (OVCAR-5 ovarian) was greater than 100 µM and the TGI (HT29 colon) was greater than 100 µM. It also gave a TGI (SNB-19 CNS) greater than 100 µM, a TGI (XF 498 CNS) greater than 100 µM and a TGI (SK-MEL-2 melanoma) greater than 100 µM. For the same compound, the TGI (NCI-H460 lung) was greater than 100 µM, the TGI (786-0 renal) was greater than 100 µM and the TGI (HOP-62 NSCLC) was greater than 100 µM. The TGI (HCT-15 colon) was greater than 100 µM, the TGI (KM20L2 colon) was greater than 100 µM and the TGI (SNB-75 CNS) was greater than 100 µM. It also gave a TGI (CCRF-CEM leukemia) greater than 100 µM, a TGI (SF-539 CNS) greater than 100 µM and a TGI (M14 melanoma) greater than 100 µM. It also gave a TGI (SK-MEL-28 melanoma) greater than 100 µM, a TGI (A549 NSCLC) greater than 100 µM and a TGI (LXFL 529 NSCLC) greater than 100 µM. The TGI (UACC-257 melanoma) was greater than 100 µM, the TGI (HCC-2998 colon) was greater than 100 µM and the TGI (OVCAR-4 ovarian) was greater than 100 µM. For the same compound, the TGI (DLD-1 colon) was greater than 100 µM, the TGI (NCI-H23 lung) was 95.3 µM and the TGI (UACC-62 melanoma) was greater than 100 µM. It also gave a TGI (U251 CNS) greater than 100 µM, a TGI (EKVX NSCLC) greater than 100 µM and a TGI (M19-MEL melanoma) greater than 100 µM.
